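96-well plates; 48 h exposure; 5 concentrations. Endpoints by linear interpolation between flanking doses. Not reached: highest tested concentration assigned. Here, GI50 denotes the concentration required for 50% inhibition of growth.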 Active and inactive are the calls of the source. Rule as the data show it: active = GI50 up to about 1.1 µM and inactive = higher.
Key:
Experiment in all cases: inhibition of tumour cell growth, NCI panel, 48 h
[1] = tested on: HCT-15
[2] = tested on: HCT-116
[3] = tested on: UACC-257
[4] = tested on: HT-29
[5] = tested on: CAKI-1
[6] = tested on: A549
[7] = tested on: A498
[8] = tested on: LOX IMVI
[9] = tested on: MOLT-4
[10] = tested on: SN12C
[11] = tested on: SF-268
[12] = tested on: HCC 2998
[13] = tested on: UO-31
[14] = tested on: 786-0
[15] = tested on: NCI-H226
[16] = tested on: OVCAR-3
[17] = tested on: UACC-62
[18] = tested on: ACHN
[19] = tested on: SK-MEL-28
[20] = tested on: NCI-H522

Row | SMILES | GI50 [1] | GI50 [2] | GI50 [3] | GI50 [4] | GI50 [5] | GI50 [6] | GI50 [7] | GI50 [8] | GI50 [9] | GI50 [10] | GI50 [11] | GI50 [12] | GI50 [13] | GI50 [14] | GI50 [15] | GI50 [16] | GI50 [17] | GI50 [18] | GI50 [19] | GI50 [20]
1 | Nc1nc(O)c(N)c(NCCOCP(=O)(O)O)n1 | > 100 µM | > 100 µM (inactive) | > 100 µM (inactive) | > 100 µM (inactive) | > 100 µM (inactive) | > 100 µM (inactive) | > 100 µM (inactive) | > 100 µM (inactive) | > 100 µM (inactive) | > 100 µM (inactive) | > 100 µM (inactive) | > 100 µM (inactive) | > 100 µM (inactive) | > 100 µM (inactive) | > 100 µM (inactive) | > 100 µM (inactive) | > 57.1 µM (inactive) | > 100 µM (inactive) | > 100 µM (inactive) | –
2 | O=C1C(=O)N(c2ccc(Cl)cc2Cl)C(=O)C(=O)C1c1nc2ccccc2o1 | > 100 µM | > 100 µM (inactive) | > 100 µM (inactive) | > 100 µM (inactive) | > 100 µM (inactive) | > 100 µM (inactive) | > 100 µM (inactive) | – | > 100 µM (inactive) | > 100 µM (inactive) | > 100 µM (inactive) | > 100 µM (inactive) | > 100 µM (inactive) | > 100 µM (inactive) | > 100 µM (inactive) | > 100 µM (inactive) | > 100 µM (inactive) | > 100 µM (inactive) | > 100 µM (inactive) | > 100 µM (inactive)
3 | O=[N+]([O-])c1ccc2nc(=S)[nH]n2c1 | > 100 µM | > 100 µM (inactive) | > 100 µM (inactive) | > 100 µM (inactive) | > 100 µM (inactive) | > 100 µM (inactive) | > 100 µM (inactive) | > 100 µM (inactive) | > 100 µM (inactive) | > 100 µM (inactive) | > 100 µM (inactive) | > 100 µM (inactive) | > 100 µM (inactive) | > 100 µM (inactive) | > 100 µM (inactive) | – | > 100 µM (inactive) | > 100 µM (inactive) | – | > 100 µM (inactive)
4 | CCOC(=O)c1ccc(/N=N\c2ccc(N(CCC#N)CCC#N)cc2C)cc1 | > 100 µM | – | > 100 µM (inactive) | > 100 µM (inactive) | > 100 µM (inactive) | > 100 µM (inactive) | > 100 µM (inactive) | > 100 µM (inactive) | > 100 µM (inactive) | > 100 µM (inactive) | – | > 100 µM (inactive) | > 100 µM (inactive) | 35.6 µM (inactive) | > 100 µM (inactive) | > 100 µM (inactive) | > 100 µM (inactive) | > 100 µM (inactive) | – | 30.4 µM (inactive)
5 | O=C1C(Cl)=C(N[C@@H](Cc2ccccc2)C(=O)OCc2ccccc2)C(=O)c2c(O)ccc(O)c21 | 1.19 µM | 1.65 µM (inactive) | > 10 µM (inactive) | 4 µM (inactive) | > 10 µM (inactive) | 3.47 µM (inactive) | 7.33 µM (inactive) | 2.99 µM (inactive) | – | 3.93 µM (inactive) | 2.91 µM (inactive) | > 10 µM (inactive) | – | 3.11 µM (inactive) | 5.3 µM (inactive) | 2.45 µM (inactive) | 2.96 µM (inactive) | 4.05 µM (inactive) | 6.34 µM (inactive) | 6.41 µM (inactive)
6 | CC1=NN(c2ccccc2)C(=O)C1/N=N/c1ccc(Br)c(C)c1 (configuration not stated) | > 100 µM | > 100 µM (inactive) | > 100 µM (inactive) | > 100 µM (inactive) | > 100 µM (inactive) | > 100 µM (inactive) | > 100 µM (inactive) | – | 71.3 µM (inactive) | > 100 µM (inactive) | > 10 µM (inactive) | > 100 µM (inactive) | – | > 100 µM (inactive) | > 100 µM (inactive) | > 100 µM (inactive) | > 100 µM (inactive) | > 100 µM (inactive) | > 100 µM (inactive) | –
7 | CCOC(=O)c1cnc2c(ccc3ncccc32)c1OCC | > 100 µM | > 100 µM (inactive) | > 100 µM (inactive) | > 100 µM (inactive) | – | > 100 µM (inactive) | > 100 µM (inactive) | > 100 µM (inactive) | 71.8 µM (inactive) | > 100 µM (inactive) | > 100 µM (inactive) | > 100 µM (inactive) | > 100 µM (inactive) | > 100 µM (inactive) | > 100 µM (inactive) | > 100 µM (inactive) | > 100 µM (inactive) | > 100 µM (inactive) | > 100 µM (inactive) | > 100 µM (inactive)
8 | O=C(NCc1cccnc1)NCc1cccnc1 | > 100 µM | > 100 µM (inactive) | > 100 µM (inactive) | > 100 µM (inactive) | > 100 µM (inactive) | > 100 µM (inactive) | > 100 µM (inactive) | > 100 µM (inactive) | – | > 100 µM (inactive) | > 100 µM (inactive) | > 100 µM (inactive) | > 100 µM (inactive) | > 100 µM (inactive) | 58.9 µM (inactive) | > 100 µM (inactive) | > 100 µM (inactive) | > 100 µM (inactive) | > 100 µM (inactive) | > 100 µM (inactive)
9 | CC(C)(C)NC(=O)C12C3C4C1C1C2C3C41I (configuration not stated) | > 100 µM | > 100 µM (inactive) | > 100 µM (inactive) | > 100 µM (inactive) | > 100 µM (inactive) | > 100 µM (inactive) | > 100 µM (inactive) | > 100 µM (inactive) | > 100 µM (inactive) | > 100 µM (inactive) | – | > 100 µM (inactive) | > 100 µM (inactive) | > 100 µM (inactive) | > 100 µM (inactive) | – | – | – | > 100 µM (inactive) | > 100 µM (inactive)
10 | O=C1CSC2(CC(/C=C/c3cccs3)=NN2c2cccc(S(=O)(=O)O)c2)N1c1nc2ccccc2s1 (configuration not stated) | > 100 µM | > 100 µM (inactive) | > 100 µM (inactive) | > 100 µM (inactive) | > 100 µM (inactive) | > 100 µM (inactive) | 15.6 µM (inactive) | 48.4 µM (inactive) | 35.7 µM (inactive) | > 100 µM (inactive) | > 100 µM (inactive) | > 100 µM (inactive) | 83.6 µM (inactive) | 88.3 µM (inactive) | 39.9 µM (inactive) | – | 49.4 µM (inactive) | 68.9 µM (inactive) | > 100 µM (inactive) | 64.9 µM (inactive)
11 | COC(=O)c1cc(-c2ccc(OC)c(OC)c2)oc1-c1ccc(OC)c(OC)c1 | 47.2 µM | 32.4 µM (inactive) | 37.6 µM (inactive) | 35.8 µM (inactive) | 54.7 µM (inactive) | 44 µM (inactive) | 18.7 µM (inactive) | 28.1 µM (inactive) | 32.7 µM (inactive) | 26.8 µM (inactive) | 49.7 µM (inactive) | 81.8 µM (inactive) | 35.6 µM (inactive) | 37.3 µM (inactive) | 34.3 µM (inactive) | 42.5 µM (inactive) | 70.1 µM (inactive) | 35.2 µM (inactive) | 57.9 µM (inactive) | –
12 | Cc1cccc(C)c1NC(=O)C(=O)C(C(=O)c1ccccc1-c1ccccc1)C1OC(=O)c2ccccc21 (configuration not stated) | – | 14.6 µM (inactive) | 22.6 µM (inactive) | 37.1 µM (inactive) | – | 25.6 µM (inactive) | 18.7 µM (inactive) | 19 µM (inactive) | 18.1 µM (inactive) | – | 23.7 µM (inactive) | 15.1 µM (inactive) | 25.3 µM (inactive) | 18.2 µM (inactive) | 11.6 µM (inactive) | 17.1 µM (inactive) | 17.4 µM (inactive) | 43.9 µM (inactive) | 22.9 µM (inactive) | 10.9 µM (inactive)
13 | COc1ccc([C@@H]2C[C@@H]3C(=O)OC(=O)[C@@H]3c3c2c2ccccc2n3C)cc1 | – | > 100 µM (inactive) | > 100 µM (inactive) | > 100 µM (inactive) | > 100 µM (inactive) | > 100 µM (inactive) | > 100 µM (inactive) | – | > 100 µM (inactive) | > 100 µM (inactive) | > 100 µM (inactive) | > 100 µM (inactive) | > 100 µM (inactive) | > 100 µM (inactive) | > 100 µM (inactive) | > 100 µM (inactive) | > 100 µM (inactive) | – | > 100 µM (inactive) | > 100 µM (inactive)
14 | COc1ccc(-c2cc(-c3ccc(Nc4ccnc5cc(C(F)(F)F)ccc45)cc3)[nH]c(=O)c2C#N)cc1 | > 100 µM | 11.4 µM (inactive) | > 100 µM (inactive) | > 33.2 µM (inactive) | > 100 µM (inactive) | > 100 µM (inactive) | > 40 µM (inactive) | 16.6 µM (inactive) | > 100 µM (inactive) | > 100 µM (inactive) | > 41.8 µM (inactive) | > 100 µM (inactive) | – | 14.1 µM (inactive) | > 29.3 µM (inactive) | > 100 µM (inactive) | 62.4 µM (inactive) | > 42.1 µM (inactive) | > 72.1 µM (inactive) | > 100 µM (inactive)
15 | O=C(Cn1ccnc1[N+](=O)[O-])NCCO [ETANIDAZOLE] | > 100 µM | > 100 µM (inactive) | 56.5 µM (inactive) | > 100 µM (inactive) | > 100 µM (inactive) | > 100 µM (inactive) | > 100 µM (inactive) | > 100 µM (inactive) | – | > 100 µM (inactive) | > 100 µM (inactive) | 41.8 µM (inactive) | > 100 µM (inactive) | > 100 µM (inactive) | > 100 µM (inactive) | > 100 µM (inactive) | > 100 µM (inactive) | > 100 µM (inactive) | > 100 µM (inactive) | > 100 µM (inactive)

Reference: ChEMBL document CHEMBL1201862, “PubChem BioAssay data set” (2004)
